According to PMC10454409, “Hybrids of Sterically Hindered Phenols and Diaryl Ureas: Synthesis, Switch from Antioxidant Activity to ROS Generation and Induction of Apoptosis” (International Journal of Molecular Sciences, 2023):

Key:
[1] = test system: Chang liver cells (human liver cells, normal cell line); assay: MTT cytotoxicity test, Chang liver normal cells; format: cell-based; settings: 48 h incubation
Source text: For the experiments, we used tumor cell cultures M-HeLa clone 11 (epithelioid carcinoma of the cervix, subline HeLa., clone M-HeLa), HuTu 80 (human duodenal adenocarcinoma) and MCF7 (human breast adenocarcinoma (pleural fluid)) from the collection of the Institute of Cytology, Russian Academy of Sciences (St. Petersburg); human liver cells (Chang liver) from the collection of the Research Institute of Virology at the Russian Academy of Medical Sciences (Moscow); and SH-SY5Y (neuroblastoma)from the Laboratory of Tumor Cell Genetics at the Scientific Research Institute of Carcinogenesis N.N. Blokhin National Medical Research Center of Oncology.
The cytotoxic effect on cells was determined using the colorimetric method of cell proliferation—the MTT test. NADP-H-dependent cellular oxidoreductase enzymes can, under certain conditions, reflect the number of viable cells. These enzymes are able to reduce the tetrazolium dye (MTT)-3-(4,5-dimethylthiazol-2-yl)-2,5-diphenyl-tetrazolium bromide to insoluble blue-violet formazan, which crystallizes inside the cell. The amount of formazan formed is proportional to the number of cells with active metabolism.
Cells were seeded on a 96-well Nunc plate at a concentration of 5 × 10^3 cells per well in a volume of 100 μL of medium and cultured in a CO2 incubator at 37 °C until a monolayer was formed. […] After 48 h, the nutrient medium was removed from the plates and 100 µL of the nutrient medium without serum with MTT at a concentration of 0.5 mg/mL was added and incubated for 4 h at 37 °C. Formazan crystals were […] 100 µL of DMSO in each well. Optical density was recorded at 540 nm on an in vitro logic microplate reader (Russia). The experiments for all compounds were repeated in triplicate.
IC50 values were estimated using the Quest Graph IC50 Calculator (AAT Bioquest, Inc., Sunnyvale, CA, USA) (Version 2022) (accessed on 25 June 2022).

DPPH antiradical assay = settings: DPPH 100 μM
Procedure: Figure 4 Antioxidant potential of the tested compounds. (a) Inhibition of lipid peroxidation (LPO) in rat brain homogenates (2 mg/mL) initiated by Fe(II) ions (concentration of 500 µM) in the tested compounds at a concentration of 100 µM. (b) Concentration dependences of LPO inhibition for the studied compounds in the concentration range from 1 µM to 100 µM. (c) Oxygen Radical Absorbance Capacity (ORAC) of the studied compounds and ORAC values expressed as Trolox equivalent (TE). (d) DPPH antiradical activity of the compounds under study and DPPH values expressed as TE. The concentration of studied compounds and Trolox was 100 µM, the concentration of DPPH was 100 μM, and the concentration of AAPH was […]. Statistical significance was assessed using one-way ANOVA and Dunnett’s multiple comparison tests, where **** p < 0.0001, *** p < 0.001 and ** p < 0.01 vs. control. […]

For `CCOP(=O)(OCC)C(c1cc(C(C)(C)C)c(O)c(C(C)(C)C)c1)c1ccc(NC(=O)Nc2ccc([N+](=O)[O-])cc2)cc1NC(=O)Nc1ccc([N+](=O)[O-])cc1` (stereo not drawn) [17b], the IC50 [1] was 74 ± 5.9 µM, the DPPH antiradical activity (DPPH antiradical assay; compound 100 µM) was 64.8 ± 0.7% and the “DPPH value (Trolox equivalent)” value (DPPH antiradical assay; compounds and Trolox 100 µM) was 1.27 Trolox equivalent.
